According to article PMC8484140 (Targeted Oncology, 2021):

What was measured:
[1] = Pharmacokinetics of exemestane, additional 21 patients; format: in vivo; settings: female, human, plasma, oral
advanced breast cancer = settings: in combination with exemestane; cited from earlier work

Compound | Tmax [1] [h] | half-life [1] [h] | AUC(0-t) ([1]; 25 mg) [ng·h/mL] | Cmax ([1]; 25 mg) [ng/mL] | Tmax ([1]; 25 mg) [h] | half-life ([1]; 25 mg) [h] | Median PFS (advanced breast cancer) [months] | Neutropenia, patients (advanced breast cancer) [%] | Thrombocytopenia, patients (advanced breast cancer) [%]
C=C1C[C@@H]2[C@H](CC[C@]3(C)C(=O)CC[C@@H]23)[C@@]2(C)C=CC(=O)C=C12 [Exemestane] | 3.95 | 5.68 | 54.6 | 17 | 1.02 | 6.24 | – | – | –
Nc1cc(F)ccc1NC(=O)c1ccc(CNC(=O)/C=C/c2cccnc2)cc1 [chidamide] | – | – | – | – | – | – | 7.4 | 51 | 28
